In patent publication US20140093457A1, “Compositions, methods and kits for remineralization and inhibition of dental caries in teeth” (President and Fellows of Harvard College, priority 2010, published 2014):
Like-named read-outs stand apart in the source and are kept apart here.

Tests used:
[1] = Removal of OsteoSense 750 from hydroxyapatite, spectrophotometry at 750 nm; conditions: hydrogen peroxide 30%, phosphoric acid 40%
Procedure: The tubes were vortexed, and the mixture was allowed to settle to obtain a supernatant. Each supernatant was collected and analyzed for probe content using a spectrophotomer.
The HA sample was washed with PBS and a spectrophotometric scan of the wash solution was performed.

[2] = hydrogen peroxide 38%
Procedure: The efficacy of removal of the probe by the solution was determined by criteria such as extent of fluorescence remaining on a tooth after rinse, or fluorescence extracted from hydroxyapatite into a rinse solution.

[3] = RFU comparison of solutions to release OsteoSense 750 from HA
Procedure: Variables included conditions of pH, temperature, and presence of 1% calcium chloride.
Three conditions were tested: incubation for 15 minutes at 37° C. after vortexing; adjusting pH to 6.5 at 23° C. after vortexing; and addition of 1% calcium chloride to each solution and incubation at room temperature after vortexing.

[4] = 1% solution with calcium chloride (1%), room temperature
[5] = 1% solution, 15 minutes at 37° C.
[6] = 1% solution, pH 6.5, room temperature
[7] = 5% solution with calcium chloride (1%), room temperature
[8] = 5% solution, 15 minutes at 37° C.
[9] = 5% solution, pH 6.5, room temperature
[10] = 10% solution with calcium chloride (1%), room temperature
[11] = 10% solution, 15 minutes at 37° C.
[12] = 10% solution, pH 6.5, room temperature
[13] = 20% solution with calcium chloride (1%), room temperature
[14] = 20% solution, 15 minutes at 37° C.
[15] = 20% solution, pH 6.5, room temperature

Which results are given for OO [hydrogen peroxide]?
spectrometric signal at 750 nm in supernatant (release of OsteoSense 750 from HA) [1]: no signal at 750 nm; fluorescence of OsteoSense 750 bound to caries lesion after application with a syringe [2]: eliminated fluorescence; fluorescence of OsteoSense 750 bound to the tooth after rinse ([2]; ten minutes after application): substantially eliminated; fluorescence of OsteoSense 750 bound to the tooth after rinse ([2]; three minutes after application): substantially reduced

What does the source list for O=P(O)(O)O [phosphoric acid (PA), phosphoric acid]?
% released of total OsteoSense [3, 4]: 1.01%; % released of total reference value [3, 4]: 2.27%; Raw RFU value [3, 4]: 0.38 RFU; % released of total OsteoSense [3, 5]: 4.61%; % released of total reference value [3, 5]: 7.36%; Raw RFU value [3, 5]: 1.73 RFU; % released of total OsteoSense [3, 6]: 6.17%; % released of total reference value [3, 6]: 18.74%; Raw RFU value [3, 6]: 2.31 RFU; % released of total OsteoSense [3, 7]: 9.44%; % released of total reference value [3, 7]: 40.79%; Raw RFU value [3, 7]: 3.54 RFU; % released of total OsteoSense [3, 8]: 9.78%; % released of total reference value [3, 8]: 18.94%; Raw RFU value [3, 8]: 3.67 RFU; % released of total OsteoSense [3, 9]: 28.38%; % released of total reference value [3, 9]: 39.54%; Raw RFU value [3, 9]: 10.64 RFU; % released of total OsteoSense [3, 10]: 10.57%; % released of total reference value [3, 10]: 43.29%; Raw RFU value [3, 10]: 3.97 RFU; % released of total OsteoSense [3, 11]: 4.37%; % released of total reference value [3, 11]: 9.10%; Raw RFU value [3, 11]: 1.64 RFU; % released of total OsteoSense [3, 12]: 45.32%; % released of total reference value [3, 12]: 67.03%; Raw RFU value [3, 12]: 17.00 RFU; % released of total OsteoSense [3, 13]: 5.12%; % released of total reference value [3, 13]: 11.99%; Raw RFU value [3, 13]: 1.92 RFU; % released of total OsteoSense [3, 14]: 3.54%; % released of total reference value [3, 14]: 8.51%; Raw RFU value [3, 14]: 1.33 RFU; % released of total OsteoSense [3, 15]: 25.34%; % released of total reference value [3, 15]: 39.91%; Raw RFU value [3, 15]: 9.50 RFU; spectrometric signal at 750 nm in supernatant (release of OsteoSense 750 from HA) [1]: definite peak at 750 nm
